# Test results as given in patent publication US20140128272A1, “Method for Inducing Dormancy of Cancer Tissue-Derived Cell Mass and Method for Evaluating Treating Means with the Use of Cancer-Tissue-Derived Cell Mass” (Osaka Prefectural Hospital Organization, priority 2012, published 2014).
# What was measured:
# [1] = test system: cancer tissue-derived cell mass (sample C45, human colon cancer); assay: in vitro drug sensitivity test with cancer tissue-derived cell mass, normal versus dormant state; format: cell-based; settings: day 7, 5-FU and oxaliplatin 0.01-10 μg/ml, SN38 0.001-1 ng/ml, FIG. 6; for response of cancer tissue-derived cell mass to drug concentration (relative increase rate of area, no drug = 1): dormant state (dormancy medium); for proliferation of cancer cells in the cancer tissue-derived cell mass (relative increase rate of area, no drug = 1): normal culture conditions (StemPro hESC SFM medium)
# Description: Using SN38,5-FU, and oxaliplatin known as anti-cancer agents, a drug sensitivity test was performed with C45 sample of Example 2. The test was proceeded by culturing the C45 obtained in example 2, in 1 cc of a dormancy medium or StemPro hESC SFM (Gibco; A10007-01) medium. Further, as to each drug, 5-FU and oxaliplatin were applied at concentrations of 0.01 μg/ml, 0.1 μg/ml, 1 μg/ml, and 10 μg/ml, and SN38 was applied at concentrations of 0.001 ng/ml, 0.01 ng/ml, 0.1 ng/ml, and 1 ng/ml, and comparative evaluation of the culture state was performed on day 7 after each culture. An increase rate of the area of the cancer tissue-derived cell mass was relatively expressed when the increase rate of the area under culture with no drug application was expressed as 1.
# [2] = test system: cancer tissue-derived cell mass (sample C45, human colon cancer); assay: effect of growth factors on proliferation of cancer tissue-derived cell mass under 1% oxygen; format: cell-based; settings: added to dormancy medium under hypoxic conditions (1% oxygen); heregulin 10 ng/ml, IGF 200 ng/ml, or both; FIG. 4
# Description: The cancer tissue-derived cell mass obtained in Example 2 was purified as a composition and cultured in a dormancy medium (20 ml): DMEM/F12 with GlutaMAX (Invitrogen) 18.5 ml, 25% BSA (Invitrogen) 1.44 ml, and 2ME Stock […] in a 6 cm non-treated dish (EIKEN CHEMICAL: AG2000) in a personal gas incubator (APM-30D, ASTEC Co., Ltd.) or INVIVO2 400 (RUSKINN) for 15 days at 37° C. under the conditions of an oxygen concentration of 1%.
Molecule,"response of cancer tissue-derived cell mass to drug concentration (relative increase rate of area, no drug = 1) [1]","proliferation of cancer cells in the cancer tissue-derived cell mass (relative increase rate of area, no drug = 1) [1]",growth of the cancer tissue-derived cell mass [2]
O=c1[nH]cc(F)c(=O)[nH]1 [5-FU],did not respond to the concentration of drugs at all or responded little to it,suppressed,–
CCc1c2c(nc3ccc(O)cc13)-c1cc3c(c(=O)n1C2)COC(=O)[C@]3(O)CC [SN38],did not respond to the concentration of drugs at all or responded little to it,suppressed,–
O=C1[O][Pt]2([NH][C@@H]3CCCC[C@H]3[NH]2)[O]C1=O [oxaliplatin],did not respond to the concentration of drugs at all or responded little to it,suppressed,–
heregulin,–,–,grew up rapidly
insulin-like growth factor [IGF],–,–,grew up rapidly
